Test systems include A549 NSCLC; HT29 colon; DMS 273 small cell lung; UACC-257 melanoma; LXFL 529 NSCLC; HL-60(TB) leukemia; KM12 colon; NCI/ADR-RES ovarian; BT-549 breast.
What all share (experiment): NCI tumour cell line growth inhibition, 48 h

Values joined by “and” are separate entries in the source; they are usually repeats but may differ in a detail not shown here. Identical values can stand only once.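 Step 1: Grow cells in 96-well plates. Step 2: Expose to compound for 48 hours at 5 concentrations. Step 3: Interpolate endpoints linearly; if unreached, use highest concentration. The concentration for 50% growth inhibition is given as GI50. TGI marks complete inhibition of growth.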 A value given as a limit tells only on which side of the number the result lay.

TGI and GI50 data for 13 compounds are collected here from PubChem BioAssay (NCI).

As to `CCOC(=N)CC(=O)Nc1cccc(C)c1C`, the TGI in the assay with A549 NSCLC, with HT29 colon, with DMS 273 small cell lung, with UACC-257 melanoma, with LXFL 529 NSCLC and in the assay on HL-60(TB) leukemia was over 100 µM throughout. Further, the TGI in the assay with KM12 colon is over 100 µM.
As to `O=c1[nH]cnc2cccc(Cl)c12`, the TGI with A549 NSCLC, with NCI/ADR-RES ovarian, in the assay on HT29 colon, with BT-549 breast, in the assay on UACC-257 melanoma and in the assay with HL-60(TB) leukemia was over 100 µM throughout. The compound also yielded a TGI in the assay on KM12 colon of over 100 µM.
`Cc1cn2c(/C=C3\C(=O)N(C)c4ccc(O)cc43)c(C)nc2s1`: the GI50 in the assay with A549 NSCLC was 7.9 µM; with NCI/ADR-RES ovarian, 8.27 µM; with HT29 colon, 3.12 µM; in the assay on BT-549 breast it was 7.57 µM; with UACC-257 melanoma it was over 100 µM; in the assay on HL-60(TB) leukemia, 2.15 µM. Moreover, the GI50 in the assay with KM12 colon was 2.38 µM. Also, the TGI in the assay on A549 NSCLC is over 100 µM; with NCI/ADR-RES ovarian it was over 100 µM; in the assay on HT29 colon it was 18.4 µM; with BT-549 breast it was over 100 µM; with UACC-257 melanoma, over 100 µM; in the assay with HL-60(TB) leukemia, 6.1 µM. The TGI in the assay on KM12 colon was over 100 µM.
In the case of `COc1ccc2c(c1)[C@@]13CCCC[C@H]1[C@@H](C2)N(C)CC3=O`, the TGI with A549 NSCLC was 41 µM; in the assay on NCI/ADR-RES ovarian, 84.4 µM; in the assay with HT29 colon it was 37.5 µM; with BT-549 breast, 31.4 µM; with UACC-257 melanoma, 30.5 µM; in the assay on HL-60(TB) leukemia, over 100 µM. The TGI in the assay with KM12 colon was 33.6 µM.
`COc1ccc(-c2c[nH]c(=S)n2-c2ccc(OC)cc2)cc1`: the GI50 in the assay with A549 NSCLC, in the assay on NCI/ADR-RES ovarian, in the assay with HT29 colon, in the assay on BT-549 breast, in the assay on UACC-257 melanoma and in the assay with HL-60(TB) leukemia was over 50 µM throughout. The GI50 in the assay with KM12 colon is over 50 µM. In addition, the TGI in the assay with A549 NSCLC, in the assay with NCI/ADR-RES ovarian, with HT29 colon, in the assay with BT-549 breast, in the assay on UACC-257 melanoma and in the assay with HL-60(TB) leukemia was over 50 µM each time. The same compound yielded a TGI in the assay with KM12 colon of over 50 µM.
Regarding `CCCCC1(CN2CCOCC2)S/C(=N/c2nc(CC(=O)OCC)cs2)NC1=O` (stereo not given), the GI50 in the assay on A549 NSCLC is 33.4 µM; with NCI/ADR-RES ovarian it was 40.1 µM; with HT29 colon, 40 µM; with BT-549 breast, 41.8 µM; with UACC-257 melanoma, 40.4 µM; in the assay on HL-60(TB) leukemia, 30.2 µM. For the same compound, in the assay with KM12 colon, the GI50 is 27.7 µM. The TGI is over 100 µM with A549 NSCLC; over 100 µM in the assay on NCI/ADR-RES ovarian; over 100 µM in the assay on HT29 colon; over 100 µM in the assay on BT-549 breast; over 100 µM with UACC-257 melanoma; 62.5 µM in the assay with HL-60(TB) leukemia. This compound displayed a TGI in the assay on KM12 colon of over 100 µM.
Regarding `O=C(Nc1ccc(Br)cc1)c1ccc(Cl)c(Cl)c1`, the GI50 in the assay on A549 NSCLC was 3.76 µM; in the assay on NCI/ADR-RES ovarian it was 3.24 µM; in the assay on HT29 colon it was 3.42 µM; in the assay on BT-549 breast, 2.74 µM; with UACC-257 melanoma, 3.69 µM; in the assay with HL-60(TB) leukemia, 2.14 µM. In addition, the GI50 in the assay with KM12 colon is 3.16 µM. The TGI with A549 NSCLC was over 100 µM; in the assay with NCI/ADR-RES ovarian, over 100 µM; in the assay with HT29 colon, over 100 µM; in the assay with BT-549 breast, over 29.8 µM; in the assay with UACC-257 melanoma, over 89.2 µM; in the assay with HL-60(TB) leukemia it was 7.37 µM. This compound returned a TGI in the assay with KM12 colon of over 100 µM.
As to `CC(C)OC(=O)NNc1cc(Cl)ccc1Cl`, the TGI in the assay on A549 NSCLC, in the assay with NCI/ADR-RES ovarian, in the assay with HT29 colon, in the assay on BT-549 breast, with UACC-257 melanoma and with HL-60(TB) leukemia was over 100 µM throughout. The compound further came in with a TGI in the assay on KM12 colon of over 100 µM.
As for `COc1cc2c(cc1O)C1Cc3ccc(OC)c(O)c3C(C2)N1C` (stereo not given), the TGI with A549 NSCLC, in the assay with NCI/ADR-RES ovarian, with HT29 colon, in the assay with BT-549 breast, in the assay on UACC-257 melanoma and with HL-60(TB) leukemia was over 100 µM each time. This compound also came in with a TGI with KM12 colon of over 100 µM.
Regarding `C[C@]12CC[C@H](O)C[C@H]1CC[C@@H]1[C@@H]2CC[C@]2(C)[C@@H](C3=CC(=O)OC3)CC[C@]12O`, the TGI in the assay on A549 NSCLC stood at 0.0456 µM; in the assay on NCI/ADR-RES ovarian, 0.573 µM; in the assay on HT29 colon, 1.6 µM; with BT-549 breast, 0.134 µM; in the assay with UACC-257 melanoma, 2.63 µM; in the assay with HL-60(TB) leukemia, 0.272 µM. This compound displayed a TGI in the assay with KM12 colon of 3.27 µM. Besides, the GI50 in the assay on HL-60(TB) leukemia was 0.0391 µM.
As to `COc1ccc2ncn(-c3cc(O[C@H](C)c4ccccc4Cl)c(C(N)=O)s3)c2c1`, the GI50 in the assay with A549 NSCLC was 0.0287 µM; with NCI/ADR-RES ovarian, 0.0107 µM; with HT29 colon, 0.00813 µM; in the assay on BT-549 breast it was 0.448 µM; with UACC-257 melanoma it was 0.444 µM; in the assay with HL-60(TB) leukemia, 0.00849 µM. For the same compound, the GI50 with KM12 colon is 0.00907 µM. The TGI in the assay with A549 NSCLC was over 25 µM; in the assay on NCI/ADR-RES ovarian, 2.88 µM; in the assay with HT29 colon, 9.13 µM; in the assay with BT-549 breast, 13.3 µM; in the assay on UACC-257 melanoma, over 22.7 µM; in the assay on HL-60(TB) leukemia it was 2.81 µM. In addition, in the assay on KM12 colon, the TGI came out at 5.23 µM.
In the case of `COCCOc1cnc2ccn([C@H](C)c3nnc4c(F)cc(-c5cnn(C)c5)cn34)c(=O)c2c1`, the GI50 with A549 NSCLC, with NCI/ADR-RES ovarian, in the assay with HT29 colon, in the assay on BT-549 breast, in the assay on UACC-257 melanoma and with HL-60(TB) leukemia was over 100 µM each time. In addition, the GI50 in the assay on KM12 colon is 24.4 µM. For the same compound, the TGI in the assay on A549 NSCLC, in the assay on NCI/ADR-RES ovarian, with HT29 colon, with BT-549 breast, in the assay with UACC-257 melanoma and in the assay with HL-60(TB) leukemia was over 100 µM throughout. In the assay with KM12 colon, this compound came in with a TGI of over 100 µM.
For `CC(C)N=c1cc2n(-c3ccc(Cl)cc3)c3ccccc3nc-2cc1Nc1ccc(Cl)cc1`, the GI50 was 1.85 µM and 1.84 µM in the assay with A549 NSCLC; 2.3 µM in the assay with NCI/ADR-RES ovarian; 0.537 µM and 0.827 µM in the assay on HT29 colon; 1.47 µM in the assay on BT-549 breast; 2.58 µM with UACC-257 melanoma; 1.04 µM with HL-60(TB) leukemia. Also, in the assay on KM12 colon, the GI50 is 1.18 µM. Also, the TGI with NCI/ADR-RES ovarian is over 100 µM; in the assay with HT29 colon it was > 50 µM and 6.27 µM; with BT-549 breast it was over 50 µM; with UACC-257 melanoma it was over 50 µM; in the assay with HL-60(TB) leukemia, 2.46 µM; in the assay on KM12 colon it was over 50 µM.
